{
  "source": "patent US20150072856A1",
  "about": "“ADJUVANTS BASED ON OPTIONALLY ALKOXYLATED REACTION PRODUCTS OF GLYCEROL CARBONATE AND ALKYLAMINES” (BASF SE, priority 2012, published 2015)",
  "format_in_all_cases": "in vivo",
  "details_in_all_cases": "300 g/ha adjuvant, 375 l/ha tank mix, score vs untreated plants",
  "key": {"[1]": {"tested_on": "winter wheat (cultivar Cubus)", "test": "Greenhouse herbicidal activity of glyphosate tank mix with adjuvant on wheat", "description": "(§1) An aqueous formulation (SL type) was prepared by dissolving 52.3 wt % potassium glyphosate in water. As adjuvant the ethoxylated (10 equivalents) carbamate from Example 1 was added and dissolved in the resulting SL formulation. This SL formulation was diluted with water to prepare a tank mix, which contained 0.8 g/l of the adjuvant, 0.75 g/l of the potassium glyphosate (or as alternative tank mix 0.37 g/l). This tankmix may be applied at 375 l/ha (corresponding to 300 g/ha adjuvant and 280 g/ha glyphosate (or 140 g/ha as alternative).\n(§2) For the greenhouse tests, various crops (winter wheat (cultivar Cubus), maize (cultivar Amadeo), soybean (cultivar Delta P.), rapeseed) was sown or potted in loamy sandy soil to a depth of 1-2 cm. When the plants had reached a growth height of 10 to 25 cm (i.e., around 10 to 21 days after sowing), the spray mixtures were applied to the plants in a spraying cabin.\n(§3) The tank mix prepared in Example 7 was applied at a application rate of 375 l/ha (140 or 280 g of glyphosate/ha and 300 g of adjuvant/ha). The temperatures in the experimental period, which lasted for 3 to 4 weeks, were between 18-35° C. […]\n(§4) The herbicidal activity was evaluated by awarding scores to the treated plants in comparison to the untreated control plants (Table 1 and 2). […]"}, "maize (cultivar Amadeo)": {"tested_on": "maize (cultivar Amadeo)", "test": "Greenhouse herbicidal activity of glyphosate tank mix with adjuvant on maize", "description": "as §1, §2, §3, §4"}, "[2]": {"tested_on": "soybean (cultivar Delta P.)", "test": "Greenhouse herbicidal activity of glyphosate tank mix with adjuvant on soybean", "description": "as §1, §2, §3, §4"}, "rapeseed": {"tested_on": "rapeseed", "test": "Greenhouse herbicidal activity of glyphosate tank mix with adjuvant on rapeseed", "description": "as §1, §2, §3, §4"}},
  "data": [
    {"compound": "O=C(O)CNCP(=O)([O-])O.[K+]", "note": "[—, potassium glyphosate]", "values": [
      {"measurement": "Activity [%] after 21 days DAT, Wheat", "setting": "[1]; 140 g/ha glyphosate", "value": 8, "unit": "%"},
      {"measurement": "Activity [%] after 21 days DAT, Wheat", "setting": "[1]; 280 g/ha glyphosate", "value": 31, "unit": "%"},
      {"measurement": "Activity [%] after 21 days DAT, Maize", "setting": "maize (cultivar Amadeo); 140 g/ha glyphosate", "value": 13, "unit": "%"},
      {"measurement": "Activity [%] after 21 days DAT, Maize", "setting": "maize (cultivar Amadeo); 280 g/ha glyphosate", "value": 63, "unit": "%"},
      {"measurement": "Activity [%] after 21 days DAT, Soybean", "setting": "[2]; 140 g/ha glyphosate", "value": 0, "unit": "%"},
      {"measurement": "Activity [%] after 21 days DAT, Soybean", "setting": "[2]; 280 g/ha glyphosate", "value": 0, "unit": "%"},
      {"measurement": "Activity [%] after 21 days DAT, Rapeseed", "setting": "rapeseed; 140 g/ha glyphosate", "value": 0, "unit": "%"},
      {"measurement": "Activity [%] after 21 days DAT, Rapeseed", "setting": "rapeseed; 280 g/ha glyphosate", "value": 0, "unit": "%"}
    ]}
  ]
}
